Measured values taken from patent publication US9617330B2, “Chemorepulsion of cells” (Celtaxsys, Inc., priority 2006, dated 2017).
Read-outs that look alike come from different tables or passages of the source.

How the values were obtained:
[1] = tested on: Eo-HL60 (HL-60 clone 15 differentiated to eosinophil-like phenotype); experiment: Trans-well migration assay (Example 1), net migratory response; assay type: cell-based, human; conditions: net observed response
[2] = tested on: Monocyte; experiment: as above
Procedure: (§1) Prior to beginning the assay 0.5% Fetal Calf Serum (FCS) in Iscove's Modified Dulbecco's Medium (IMDM) is prepared and stored on ice (Assay Medium). Migratory cells at a concentration of 2×10^7 cells/ml are suspended in Assay Medium. T-cells isolated from donor blood or buffy coats are allowed to rest overnight in Assay Medium at 37° C. in 5% CO2. Neutrophils, monocytes and B cells are utilized as soon as they are purified from donor blood or other source of human origin. Four serial (10×) dilutions of the ligand are then prepared in Assay Medium (normally 10 μg/ml to 0.01 μg/ml).
(§2) Plates are removed from the packaging, leaving the membrane behind and intact. The membrane is set aside. Into each well is pipetted 31 μl of solution. For media controls and fugetaxis (chemorepellent) samples, Assay Medium is used. For chemoattraction samples, the appropriate dilution of agent in assay medium is used.
(§3) Using a sterile needle, all small bubbles present in each well are popped and the membrane is carefully placed onto the plate, starting at one side and slowly lowering the other edge onto the plate.
(§4) Then 29 μl is pipetted into each circle imprinted on the polycarbonate or polyester membrane. For media controls and chemoattraction samples, Assay Medium is used. For fugetaxis (chemorepellent) samples, the appropriate dilution of ligand in assay medium is used.
(§5) To each 29 uL aliquot above is added 2 μl of cells (40,000 cells). It is important to ensure that before beginning the cells are well suspended and that they are mixed. This mixing can be accomplished by agitating the tube between each addition.
(§6) The plate is then covered with the supplied lid and incubated 1-3 hours in a humidified incubator at 37° C. in 5% CO2. Following the incubation period, the liquid from the top of the plate is removed with a tissue or similar blotting material (e.g. a Kimwipe). The membrane is carefully removed from the top of the plate and discarded. […] Using a multichannel pipettor, each well of the microplate is rinsed with 25 μl Phosphate Buffered Saline (Mediatech #21-040-CV) and transferred to the same wells in the white microplate. Using a multichannel pipettor, 50 μl CellTiter-Glo Luminescent Cell Viability Assay (Promega #G7572) is added to each well and mixed.
(§7) The plate is read using the Perkin Elmer Victor^3V plate reader using the Large Aperture Luminescence setting at 8 mm height above the plate with a dwell time of 1 s to quantify the number of migrated cells.
(§8) The results reported reflect the net observed migratory response of the cells to the ligand and are not based on the definition of unimodal fugetaxins.

[3] = tested on: B-cell; experiment: as above; conditions: net observed response
Procedure: as §1, §2, §3, §4, §5, §6, §7, §8

[4] = tested on: Neutrophils; experiment: High throughput transmigration assay (Example 9), chemorepulsion; assay type: cell-based, human
[5] = Monocyte, net observed response
[6] = Neutrophils, mean of three donors at concentration of highest activity, range 0.00125-1.25 μM
[7] = neutrophils, 0.00125 μM, one donor, triplicate, ± SD
[8] = neutrophils, 0.0125 μM, one donor, triplicate, ± SD
[9] = neutrophils, 0.125 μM, one donor, triplicate, ± SD
[10] = neutrophils, 1.25 μM, one donor, triplicate, ± SD

Lipid A Diphos [reference compound]
Migratory Response [1]: chemorepulsion

CC(=O)O[C@H]1C(=O)[C@@]2(C)[C@H]([C@H](OC(=O)c3ccccc3)[C@]3(O)C[C@H](OC(=O)[C@H](O)[C@@H](NC(=O)c4ccccc4)c4ccccc4)C(C)=C1C3(C)C)[C@]1(OC(C)=O)CO[C@@H]1C[C@@H]2O [Paclitaxel, reference compound]
Migratory Response [2, 5]: chemorepulsion | Migratory Response [1]: chemorepulsion

MCP-4: chemokine
Migratory Response [2, 5]: chemorepulsion | Migratory Response [3]: chemorepulsion

CC[C@H]1OC(=O)[C@H](C)[C@@H](O[C@H]2C[C@@](C)(OC)[C@@H](O)[C@H](C)O2)[C@H](C)[C@@H](O[C@@H]2O[C@H](C)C[C@H](N(C)C)[C@H]2O)[C@](C)(O)C[C@@H](C)C(=O)[C@H](C)[C@@H](O)[C@]1(C)O [Erythromycin, reference compound]
Repellent Index [4, 6]: 4.8 | Repellent Index [4, 7]: 1.75 ± 0.40 | Repellent Index [4, 8]: 2.29 ± 1.61 | Repellent Index [4, 9]: 3.29 ± 1.11 | Repellent Index [4, 10]: 6.12 ± 2.53

Tropomyosin
Repellent Index [4, 6]: 1.7 | Repellent Index [4, 7]: 2.57 ± 0.73 | Repellent Index [4, 8]: 2.26 ± 0.86 | Repellent Index [4, 9]: 2.23 ± 0.68 | Repellent Index [4, 10]: 1.67 ± 0.16

O=c1c(-c2ccc(O)cc2)coc2cc(O)cc(O)c12 [Genistein, reference compound]
Migratory Response [3]: chemorepulsion | Repellent Index [4, 6]: 1.3

Eotaxin: chemokine
Migratory Response [3]: chemorepulsion

O.O.O=c1c(O)c(-c2ccc(O)c(O)c2)oc2cc(O)cc(O)c12 [Quercetin dihydrate, reference compound]
Migratory Response [3]: chemorepulsion | Migratory Response [1]: chemorepulsion

Concanavalin A
Migratory Response [2, 5]: chemorepulsion | Migratory Response [3]: chemorepulsion

CXCL2: chemokine
Repellent Index [4, 6]: 1.6

(−)-Epigallocatechin Gallate [EGCG ((−)-Epigallocatechin Gallate), reference compound]
Migratory Response [3]: chemorepulsion

Antithrombin III
Repellent Index ([4]; Neutrophils, mean of three donors at concentration of highest activity, range 0.000573-0.573 μM): 2.2 | Repellent Index ([4]; neutrophils, 0.000573 μM, one donor, triplicate, ± SD): 1.08 ± 0.36 | Repellent Index ([4]; neutrophils, 0.00573 μM, one donor, triplicate, ± SD): 1.63 ± 0.67 | Repellent Index ([4]; neutrophils, 0.0573 μM, one donor, triplicate, ± SD): 3.17 ± 0.98 | Repellent Index ([4]; neutrophils, 0.573 μM, one donor, triplicate, ± SD): 5.55 ± 1.71

COc1cc(CNC(=O)CCCC/C=C/C(C)C)ccc1O [Capsaicin, reference compound]
Migratory Response [3]: chemorepulsion

N-acetylmuramyl (MDP) [reference compound]
Migratory Response [2]: chemorepulsion | Migratory Response [1]: chemorepulsion

Galectin-7: full-length galectin protein, purchased
Migratory Response [3]: chemorepulsion

Oc1ccc(C=Cc2cc(O)cc(O)c2)cc1 [Resveratrol, reference compound]
Migratory Response [3]: chemorepulsion | Repellent Index [4, 6]: 1.4 | Repellent Index [4, 7]: 2.65 ± 0.29 | Repellent Index [4, 8]: 2.80 ± 0.32 | Repellent Index [4, 9]: 2.05 ± 0.28 | Repellent Index [4, 10]: 1.32 ± 0.50 | Migratory Response [1]: chemorepulsion

CC(C)=CCC[C@]1(C)[C@@H](CC=C(C)C)C[C@@]2(CC=C(C)C)C(=O)[C@]1(C(=O)C(C)C)C(=O)C(CC=C(C)C)=C2O [Hyperforin, reference compound]
Migratory Response [2]: chemorepulsion

B1: Eotaxin-2: chemokine (protein, UniProt O00175 27-119, looked up)
C-C motif chemokine 24: VVIPSPCCMFFVSKRIPENRVVSYQLSSRSTCLKAGVIFTTKKGQQFCGDPKQEWVQRYMKNLDAKQKKASPRARAVAVKGPVQRYPGNQTTC
Migratory Response [2, 5]: chemorepulsion | Migratory Response [3]: chemorepulsion

B2: Eotaxin-3: chemokine (protein, UniProt Q9Y258 24-94, looked up)
C-C motif chemokine 26: TRGSDISKTCCFQYSHKPLPWTWVRSYEFTSNSCSQRAVIFTTKRGKKVCTHPRKKWVQKYISLLKTPKQL
Migratory Response [2, 5]: chemorepulsion | Migratory Response [3]: chemorepulsion

B3: HCC-1: chemokine (protein, UniProt Q16627 20-93, looked up)
C-C motif chemokine 14: TKTESSSRGPYHPSECCFTYTTYKIPRQRIMDYYETNSQCSKPGIVFITKRGHSVCTNPSDKWVQDYIKDMKEN
Migratory Response [3]: chemorepulsion

B4: HSP32 Rat: heat shock protein; accession P06762/AAH91164 (protein, UniProt P06762 1-289, looked up)
Heme oxygenase 1: MERPQLDSMSQDLSEALKEATKEVHIRAENSEFMRNFQKGQVSREGFKLVMASLYHIYTALEEEIERNKQNPVYAPLYFPEELHRRAALEQDMAFWYGPHWQEAIPYTPATQHYVKRLHEVGGTHPELLVAHAYTRYLGDLSGGQVLKKIAQKAMALPSSGEGLAFFTFPSIDNPTKFKQLYRARMNTLEMTPEVKHRVTEEAKTAFLLNIELFEELQALLTEEHKDQSPSQTEFLRQRPASLVQDTTSAETPRGKSQISTSSSQTPLLRWVLTLSFLLATVAVGIYAM
Repellent Index [4, 6]: 1.8 | Migratory Response [1]: chemorepulsion

B5: TARC: chemokine (protein, UniProt Q92583 24-94, looked up)
C-C motif chemokine 17: ARGTNVGRECCLEYFKGAIPLRKLKTWYQTSEDCSRDAIVFVTVQGRAICSDPNNKRVKNAVKYLQSLERS
Migratory Response [3]: chemorepulsion

B6: Leukotactin-1: chemokine (protein, UniProt Q16663 22-113, looked up)
C-C motif chemokine 15: QFTNDAETELMMSKLPLENPVVLNSFHFAADCCTSYISQSIPCSLMKSYFETSSECSKPGVIFLTKKGRQVCAKPSGPGVQDCMKKLKPYSI
Migratory Response [3]: chemorepulsion

B7: MIP-1 beta: chemokine (protein, UniProt P13236 24-92, looked up)
C-C motif chemokine 4: APMGSDPPTACCFSYTARKLPRNFVVDYYETSSLCSQPAVVFQTKRSKQVCADPSESWVQEYVYDLELN
Migratory Response [2, 5]: chemorepulsion | Migratory Response [3]: chemorepulsion

B8: RANTES: chemokine (protein, UniProt P13501 24-91, looked up)
C-C motif chemokine 5: SPYSSDTTPCCFAYIARPLPRAHIKEYFYTSGKCSNPAVVFVTRKNRQVCANPEKKWVREYINSLEMS
Migratory Response [2, 5]: chemorepulsion | Migratory Response [3]: chemorepulsion

B9: Fractalkine: chemokine (protein, UniProt P78423 25-397, looked up)
Fractalkine: QHHGVTKCNITCSKMTSKIPVALLIHYQQNQASCGKRAIILETRQHRLFCADPKEQWVKDAMQHLDRQAAALTRNGGTFEKQIGEVKPRTTPAAGGMDESVVLEPEATGESSSLEPTPSSQEAQRALGTSPELPTGVTGSSGTRLPPTPKAQDGGPVGTELFRVPPVSTAATWQSSAPHQPGPSLWAEAKTSEAPSTQDPSTQASTASSPAPEENAPSEGQRVWGQGQSPRPENSLEREEMGPVPAHTDAFQDWGPGSMAHVSVVPVSSEGTPSREPVASGSWTPKAEEPIHATMDPQRLGVLITPVPDAQAATRRQAVGLLAFLGLLFCLGVAMFTYQSLQGCPRKMAGEMAEGLRYIPRSCGSNSYVLVPV
Migratory Response [2, 5]: chemorepulsion | Migratory Response [3]: chemorepulsion

B10: SLC: chemokine (protein, UniProt O00585 24-134, looked up)
C-C motif chemokine 21: SDGGAQDCCLKYSQRKIPAKVVRSYRKQEPSLGCSIPAILFLPRKRSQAELCADPKELWVQQLMQHLDKTPSPQKPAQGCRKDRGASKTGKKGKGSKGCKRTERSQTPKGP
Migratory Response [2, 5]: chemorepulsion

B11: MDC: chemokine (protein, UniProt O00626 25-93, looked up)
C-C motif chemokine 22: GPYGANMEDSVCCRDYVRYRLPLRVVKHFYWTSDSCPRPGVVLLTFRDKEICADPRVPWVKMILNKLSQ
Migratory Response [3]: chemorepulsion
